According to patent publication US8580829B2 (Boehringer Ingelheim International GmbH, priority 2010, dated 2013):
Like-named read-outs stand apart in the source and are kept apart here.

How the values were obtained:
[1] = system: biomarkers for myocardial infarction risk; settings: clinical trial; cited from earlier work
[2] = molecular target: T1, recombinant human FLAP protein (Homo sapiens, UniProt P20292); assay: FLAP binding assay (Scintillation Proximity Assay, displacement of [125I]L-691,831); settings: recombinant human FLAP membranes, [125I]L-691,831 probe; read-out: FLAP SPA IC50
T1 construct: made in house; host or cells: Sf9 insect cells (100,000 x g membrane fraction)
T1 sequence (P20292 1-161): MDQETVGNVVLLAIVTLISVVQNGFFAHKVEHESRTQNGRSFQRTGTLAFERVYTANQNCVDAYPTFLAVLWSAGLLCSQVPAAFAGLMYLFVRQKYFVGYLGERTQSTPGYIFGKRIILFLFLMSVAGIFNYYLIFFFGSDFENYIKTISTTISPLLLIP
Outline: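 WGA scintillation proximity beads were stirred 1 h with 5 μg of FLAP-containing membrane protein. The membranes came from baculovirus Sf9 cells, Dounce-lysed and spun to a 100,000×g pellet in buffer at pH 7.5.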

[3] = system: synthesis of LTB4 in human whole blood; assay: human whole blood LTB4 production inhibition assay; assay type: cell-based; settings: heparinized human whole blood, calcimycin 20 μM, read-out: hWB LTB4 IC50
Outline: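 LTB4 in plasma was quantified by HTRF immunoassay. Before that, compound-treated heparinized whole blood (15 min, 37 °C) received 20 μM final calcimycin for a further 30 min at 37 °C, followed by centrifugation at 1500×g.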

human glomerulonephritis = settings: clinical trial; cited from earlier work
ApoE−/−xCD4dnTβRII mice = settings: infusion, treated for four weeks; cited from earlier work
[4] = system: apoE/LDL-R double knockout mice; settings: oral dosing, high-fat diet from 2 months of age to 6 months; cited from earlier work

| Structure (SMILES) | IC50 [2] [nM] | IC50 ([3]; Homo sapiens) [nM] | further results |
| --- | --- | --- | --- |
| O=C(O)[C@@H](c1ccc(OCc2ccc3ccccc3n2)cc1)C1CCCC1 [DG-031] |  |  | effect on biomarkers for myocardial infarction risk [1]: dose-dependent suppression of several biomarkers |
| Nc1ccc(-c2ccc(C3(c4noc(-c5cnc(N6CCNCC6)cn5)n4)CCC3)cc2)cn1 [Example 296, 5-(4-{1-[5-(3,4,5,6-Tetrahydro-2H-[1,2′]bipyrazinyl-5′-yl)-[1,2,4]oxadiazol-3-yl]-cyclobutyl}-phenyl)-pyridin-2-ylamine] | 2.1 | 230 |  |
| CC(C)(O)Cn1cncc1-c1nc(C2(c3ccc(-c4cnc(N)nc4)cc3)CCC2)no1 [Example 298, 1-[5-(3-{1-[4-(2-Amino-pyrimidin-5-yl)-phenyl]-cyclobutyl}-[1,2,4]oxadiazol-5-yl)-imidazol-1-yl]-2-methyl-propan-2-ol] | 16 | 510 |  |
| Nc1cnc(-c2ccc(C3(c4noc(-c5cnn(C6COC6)c5)n4)CCC3)cc2)cn1 [Example 299, 5-(4-{1-[5-(1-Oxetan-3-yl-1H-pyrazol-4-yl)-[1,2,4]oxadiazol-3-yl]-cyclobutyl}-phenyl)-pyrazin-2-ylamine; compound with trifluoro-acetic acid] | 2.9 | 24 |  |
| CN(C)C(=O)Cn1cc(-c2nc(C3(c4ccc(-c5ccc(N)nc5)cc4)CCC3)no2)cn1 [Example 301, 2-[4-(3-{1-[4-(6-Amino-pyridin-3-yl)-phenyl]-cyclobutyl}-[1,2,4]oxadiazol-5-yl)-pyrazol-1-yl]-N,N-dimethyl-acetamide] | 6 | 140 |  |
| Nc1cnc(-c2ccc(C3(c4noc(-c5cnc(N6CCNCC6)cn5)n4)CCC3)cc2)cn1 [Example 302, 5-(4-{1-[5-(3,4,5,6-Tetrahydro-2H-[1,2′]bipyrazinyl-5′-yl)-[1,2,4]oxadiazol-3-yl]-cyclobutyl}-phenyl)-pyrazin-2-ylamine] | 2.6 | 150 |  |
| CN(C)C(=O)Cn1cc(-c2nc(C3(c4ccc(-c5cnc(N)cn5)cc4)CCC3)no2)cn1 [Example 304, 2-[4-(3-{1-[4-(5-Amino-pyrazin-2-yl)-phenyl]-cyclobutyl}-[1,2,4]oxadiazol-5-yl)-pyrazol-1-yl]-N,N-dimethyl-acetamide] | 10 | 65 |  |
| Cn1cnc(-c2nc(C3(c4ccc(-c5ccc(N)nc5)cc4)CCC3)no2)c1 [Example 305, 5-(4-{1-[5-(1-Methyl-1H-imidazol-4-yl)-[1,2,4]oxadiazol-3-yl]-cyclobutyl}-phenyl)-pyridin-2-ylamine] | 15 | 120 |  |
| C[C@@H]1CCC[C@H](C)N1c1nc(C2(c3ccc(-c4cnc(N)nc4)cc3)CCC2)no1 [Example 306, 5-(4-{1-[5-(cis-2,6-Dimethyl-piperidin-1-yl)-[1,2,4]oxadiazol-3-yl]-cyclobutyl}-phenyl)-pyrimidin-2-ylamine] | 12 | 580 |  |
| Nc1ncc(-c2ccc(C3(c4noc(-c5cnc(N6CCNCC6)cn5)n4)CCC3)cc2)cn1 [Example 307, 5-(4-{1-[5-(3,4,5,6-Tetrahydro-2H-1,2′-bipyrazinyl-5′-yl)-1,2,4-oxadiazol-3-yl]-cyclobutyl}-phenyl)-pyrimidin-2-ylamine] | 3.5 |  | IC50 [3]: 150 nM |
| COC(=O)[C@H]1CN(c2cnc(-c3nc(C4(c5ccc(-c6cnc(N)nc6)cc5)CCC4)no3)cn2)CCN1 [Example 308, (R)-5′-(3-{1-[4-(2-Amino-pyrimidin-5-yl)-phenyl]-cyclobutyl}-1,2,4-oxadiazol-5-yl)-3,4,5,6-tetrahydro-2H-1,2′-bipyrazinyl-3-carboxylic acid methyl ester] | 5 |  | IC50 [3]: 480 nM |
| COC(=O)[C@@H]1CN(c2cnc(-c3nc(C4(c5ccc(-c6cnc(N)nc6)cc5)CCC4)no3)cn2)CCN1 [Example 309, (S)-5′-(3-{1-[4-(2-Amino-pyrimidin-5-yl)-phenyl]-cyclobutyl}-1,2,4-oxadiazol-5-yl)-3,4,5,6-tetrahydro-2H-1,2′-bipyrazinyl-3-carboxylic acid methyl ester] | 5.7 |  | IC50 [3]: 760 nM |
| CC(C)(C)Sc1c(CC(C)(C)C(=O)O)n(Cc2ccc(Cl)cc2)c2ccc(OCc3ccc4ccccc4n3)cc12 [MK-591] |  |  | effect on proteinuria (human glomerulonephritis): reduce proteinuria |
| CC(C)c1ccc2c(c1)c(SC(C)(C)C)c(CC(C)(C)C(=O)O)n2Cc1ccc(Cl)cc1 [MK-886] |  |  | decrease in plaque area in the aortic root (ApoE−/−xCD4dnTβRII mice): ~40%; decrease in plaque coverage in the aorta [4]: 56%; decrease in plaque coverage in the aortic root [4]: 43% |
